Assays:
Echinochloa crusgalli = experiment: Weeding effect in post-emergence stage (greenhouse pot spray); assay type: in vivo
How it was run: (§1)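 Fresh-weight control rate was assessed 3 weeks after post-emergence spray-tower application at doses of 500–15 g a.i./ha, triplicate. Weeds were treated at the 2–3 leaf stage, 2 weeks post-sowing, using acetone solutions with Tween 80 plus 1.5 L/ha methyl oleate emulsifiable concentrate.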

Digitaria sanguinalis [1] = experiment: as above; assay type: in vivo
How it was run: as §1

Setaria viridis = experiment: as above; assay type: in vivo
How it was run: as §1

Rice = experiment: Transplanted rice safety evaluation and weed control effect evaluation in rice field; assay type: in vivo, rice (japonica rice/Indica rice); details: Table 8, dose 60 g a.i./ha
How it was run: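 Japonica and Indica rice at 3-leaf stage transplanted into flooded paddy soil (3-4 cm water). Compound applied 5 days after transplanting. Weeds scored visually on 0-5 scale at 14 days; rice injury at 21 days.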

Leptochloa chinensis [2] = experiment: Post-emergence control experiment of R configuration compound activity (weeds 4-5 leaf stage, 25 days); assay type: in vivo
Experimental: (§2) Experiment on weeding effect in post-emergence stage: after 3-4 weeks of sowing, the test plants were treated in the 1.5-2 leaf stage of the directly sowed rice Longyang 16, and the 4-5 leaf stage of weeds. After the application of the compounds of the present invention, the plants were cultured for 25 days in the greenhouse, and then the experimental results of the weeding were counted.

Digitaria sanguinalis [3] = experiment: as above; assay type: in vivo; details: Digitaria sanguinalis, post-emergence; read-out: Digitaria sanguinalis (30 g a.i./ha) inhibition rate
Experimental: as §2

Abutilon theophrasti = experiment: as above; assay type: in vivo; details: Abutilon theophrasti, post-emergence; read-out: Ablation theophrasti (30 g a.i./ha) inhibition rate
Experimental: as §2

Green Setaria viridis = experiment: as above; assay type: in vivo; details: Setaria viridis, post-emergence
Experimental: as §2

Monochoria vaginalis = experiment: Transplanted rice safety evaluation and weed control effect evaluation in rice field; assay type: in vivo; details: Table 8, dose 60 g a.i./ha
How it was run: (§3)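 Paddy-soil pots, seeds sown and flooded (0.5-1 cm, then 3-4 cm water); Sagittaria grown from tubers. WP or SC dilutions dripped on at 0.5-leaf stage (Sagittaria at primary leaf). Visual 0-5 scoring of weeds at 14 days, rice at 21 days.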

Echinochloa crusgali = experiment: as above; assay type: in vivo; details: Table 8, dose 60 g a.i./ha
How it was run: as §3

Leptochloa chinensis [4] = experiment: as above; assay type: in vivo; details: Table 8, dose 60 g a.i./ha
How it was run: as §3

Sagittaria trifolia = experiment: as above; assay type: in vivo; details: Table 8, dose 60 g a.i./ha
How it was run: as §3

Rice (Longyang 16) = experiment: Post-emergence control experiment of R configuration compound activity (directly sowed rice 1.5-2 leaf stage, 25 days); assay type: in vivo
Experimental: as §2
Longyang 16 is a representative and important long-grain fragrant rice in Northeast China. Long-grain fragrant rice is more sensitive to herbicides, especially to HPPD herbicides such as Mesotrione, Benzobicylon and the like, which are prone to causing phytotoxicity.

SMILES: CCC[S@@+]([O-])c1c(C(F)(F)F)ccc(C(=O)Nc2nnc(C)o2)c1F [1-8 (R-configuration)]
- Echinochloa crusgali (activity level) (Echinochloa crusgalli; Table 3, dose 3.75 g a.i./ha): 5 (Level 5: growth control rate is above 85%)
- Echinochloa crusgali (activity level) (Echinochloa crusgalli; Table 3, dose 7.5 g a.i./ha): 5 (Level 5: growth control rate is above 85%)
- Echinochloa crusgali (activity level) (Echinochloa crusgalli; Table 3, dose 15 g a.i./ha): 5 (Level 5: growth control rate is above 85%)
- Echinochloa crusgali (activity level) (Echinochloa crusgalli; Table 3, dose 30 g a.i./ha): 5 (Level 5: growth control rate is above 85%)
- Echinochloa crusgali (activity level) (Echinochloa crusgalli; Table 3, dose 60 g a.i./ha): 5 (Level 5: growth control rate is above 85%)
- Digitaria sanguinahs (activity level) (Digitaria sanguinalis [1]; Table 3, dose 3.75 g a.i./ha): 4 (Level 4: growth control rate is greater than or equal to 60% and less than 85%)
- Digitaria sanguinahs (activity level) (Digitaria sanguinalis [1]; Table 3, dose 7.5 g a.i./ha): 5 (Level 5: growth control rate is above 85%)
- Digitaria sanguinahs (activity level) (Digitaria sanguinalis [1]; Table 3, dose 15 g a.i./ha): 5 (Level 5: growth control rate is above 85%)
- Digitaria sanguinahs (activity level) (Digitaria sanguinalis [1]; Table 3, dose 30 g a.i./ha): 5 (Level 5: growth control rate is above 85%)
- Digitaria sanguinahs (activity level) (Digitaria sanguinalis [1]; Table 3, dose 60 g a.i./ha): 5 (Level 5: growth control rate is above 85%)
- Setaria viridis (activity level) (Setaria viridis; Table 3, dose 3.75 g a.i./ha): 2 (Level 2: growth control rate is greater than or equal to 20% and less than 40%)
- Setaria viridis (activity level) (Setaria viridis; Table 3, dose 7.5 g a.i./ha): 4 (Level 4: growth control rate is greater than or equal to 60% and less than 85%)
- Setaria viridis (activity level) (Setaria viridis; Table 3, dose 15 g a.i./ha): 5 (Level 5: growth control rate is above 85%)
- Setaria viridis (activity level) (Setaria viridis; Table 3, dose 30 g a.i./ha): 5 (Level 5: growth control rate is above 85%)
- Setaria viridis (activity level) (Setaria viridis; Table 3, dose 60 g a.i./ha): 5 (Level 5: growth control rate is above 85%)
- Rice (safety level) (Rice): 0 (Level 0: growth control rate is less than 5%)
- inhibition at 60 g/ha (Leptochloa chinensis [2]; Dinebra chinensis, post-emergence, read-out: Leptochloa chinensis (60 g a.i./ha) inhibition rate): 85%
- inhibition at 125 g/ha (Leptochloa chinensis [2]; Dinebra chinensis, post-emergence, read-out: Leptochloa chinensis (125 g a.i./ha) inhibition rate): 100%
- activity against key weed Leptochloa chinensis / key weeds, in words (Leptochloa chinensis [2]; in vivo): better activity
- inhibition at 30 g/ha (Digitaria sanguinalis [3]): 100%
- inhibition at 30 g/ha (Abutilon theophrasti): 100%
- inhibition at 30 g/ha (Green Setaria viridis; read-out: Green Setaria viridis (30 g a.i./ha) inhibition rate): 75%
- inhibition at 60 g/ha (Green Setaria viridis; read-out: Green Setaria viridis (60 g a.i./ha) inhibition rate): 100%
- Monochoria vaginalis (activity level) (Monochoria vaginalis): 5 (Level 5: growth control rate is above 85%)
- Echinochloa crusgali (activity level) (Echinochloa crusgali): 5 (Level 5: growth control rate is above 85%)
- Leptochloa chinensis (activity level) (Leptochloa chinensis [4]): 5 (Level 5: growth control rate is above 85%)
- Sagittaria trifolia (activity level) (Sagittaria trifolia): 5 (Level 5: growth control rate is above 85%)
- Rice (Longyang 16) (250 g a.i./ha) inhibition rate (Rice (Longyang 16); 250 g a.i./ha): 0%
- Rice (Longyang 16) (500 g a.i./ha) inhibition rate (Rice (Longyang 16); 500 g a.i./ha): 0%
- safety on rice (Longyang 16), in words (Rice (Longyang 16); in vivo): high safety

— patent US20230041563A1, “N-(1,3,4-OXADIAZOL-2-YL)ARYLCARBOXAMIDES OR SALTS THEREOF, PREPARATION METHODS, HERBICIDAL COMPOSITIONS AND USES THEREOF” (priority 2018, published 2023)
